Assays:
[1] = tested on: release of 5-HT from the proximal gut; assay: 5-HT released by the proximal gut (ELISA of mid-gut fistula output); format: in vivo, dog; conditions: for amount of 5-HT released by the proximal gut: n=1
Procedure: To test the hypothesis that fat in the distal gut causes the release of 5-HT in the proximal gut, the amount of 5-HT collected from the output of the mid-gut fistula (proximal gut 5-HT) over a 90-minute period of buffer perfusion through both the duodenal and mid-gut fistulas (2 mL/min); buffer (control) or oleate (60 mM) was administered to the distal gut (n=1). The amount of 5-HT was determined using an ELISA kit specific for 5-HT (Sigma; Graham-Smith, D. G., The carcinoid syndrome, In: Topics in Gastroenterology, Truclove, S. C. and Lee, E. (eds.), Blackwells, London, p. 275 [1977]; Singh, S. M. et al., Concentrations of serotonin in plasma-a test for appendicitis?, Clin. Chem. 34:2572-2574 [1988]). The amount of 5-HT released by the proximal gut increased in response to fat in the distal gut from 100 μg in the control (buffer minus oleate) to 338 μg (buffer plus oleate to distal gut), showing that 5-HT is released in the proximal gut in response to fat in the distal gut. Thus, the release of 5-HT by the proximal gut can serve as a relayed signal for fat in the distal gut. The relayed release of 5-HT in the proximal gut in response to fat in the distal gut is consistent with Example 14(2), showing that slowing of intestinal transit by fat depends on an efferent 5-HT-mediated pathway to the proximal gut.
To test the hypothesis that 5-HT in the distal gut causes the release of 5-HT in the proximal gut, the amount of 5-HT collected from the output at the mid-gut fistula (Proximal gut 5-HT) over a 90-minute period of buffer perfusion through both the duodenal and mid-gut fistulas (2 mL/min each) was compared in the presence or absence of 5-HT (0.05 mg/kg/h) administered to the distal gut (n=1). 5-HT concentration was determined using an ELISA kit specific for 5-HT (Sigma). The amount of 5-HT released by the proximal gut increased from 156 μg in the control (minus distal 5-HT) to 450 μg (plus 5-HT to distal gut), implying that 5-HT is released by the proximal gut in response to 5-HT in the distal gut. Thus, the release of 5-HT by the proximal gut can serve as a relayed signal for distal gut 5-HT. This relayed release of 5-HT in the proximal gut explains the results of Example 14(6) showing that the slowing of intestinal transit by distal gut 5-HT was abolished by ondansetron in the proximal gut (efferent limb of response) as well as in the distal gut (afferent limb of response).
To test the hypothesis that the proximal gut releases 5-HT in response to lipid in the distal gut, we compared the amount of 5-HT in the output of the midgut fistula (i.e., proximal gut 5-HT) with buffered saline (control) or oleate in the distal gut. The amount of 5-HT collected over 90 min was measured using a 5-HT-specific ELISA test kit, as described herein above. Four dogs were tested.
The amount of 5-HT released from the proximal gut in response to intravenous PYY or buffered saline (Control) during buffer perfusion (2 mL/min over 90 minutes) through both the duodenal and mid-gut fistulas was measured to test the hypothesis that intravenous PYY (0.8 mg/kg/h) causes the release of 5-HT in the proximal gut. 5-HT was measured as in Example 14(9) above. The amount of 5-HT released by the proximal gut increased from 140.1 μg (Control) to 463.1 μg in response to intravenous PYY.

intestinal transit = assay: Intestinal transit in fistulated dogs, Sqrt AUC of cumulative marker recovery; format: in vivo, dog
Procedure: In 4 dogs equipped with duodenal (10 cm from pylorus) and mid-gut (160 cm from pylorus) fistulas, as described hereinbelow (Example 14), intestinal transit was compared across an isolated 150 cm test segment (between fistulas) while 0, 15, 30 or 60 mM oleate was delivered into either the proximal or distal segment of the gut as a solution of mixed micelles in pH 7.0 phosphate buffer at 2 mL/min for 90 minutes. The segment of gut not receiving oleate was perfused with phosphate buffer, pH 7.0, at 2 mL/min. 60 minutes after the start of the perfusion, […] of ^99mTc-DTPA (diethylenetriaminepentaacetic acid) was delivered as a bolus into the test segment. Intestinal transit was then measured by counting the radioactivity of 1 ml samples collected every 5 minutes from the diverted output of the mid-gut fistula.
Intestinal transit was calculated by determining the area under the curve (AUC) of the cumulative percent recovery of the radioactive marker. The square root values of the AUC (Sqrt AUC), where 0=no recovery by 30 minutes and 47.4=theoretical, instantaneous complete recovery by time 0, were compared across region of fat exposure and oleate dose using 2-way repeated measures ANOVA (see Table 6 below).

SIBO = assay: Case: ADHD with SIBO, neomycin; format: in vivo, human; conditions: one patient
Text: A person was brought in by their parent with a suspected diagnosis of attention deficit/hyperactivity disorder (AD type), made by a pediatrician. Concurrently, they also had significant bloating, gas and some alteration in bowel habits. They had initially been referred for diagnosis by their teachers and school counselors, because they had been having difficulty performing in school for the previous two to three years, after having previously been a very good student. Prior to the detection of SIBO, the subject had been treated with multiple pharmacologic agents for depression, including amitryptiline, with no noticeable improvement in their symptoms.
Additionally, they started to get AA≅ averages in school again after being in the AC≅ range.

Molecule	amount of 5-HT released by the proximal gut ([1]; 60 mM oleate to distal gut without intravenous PYY) [µg]	amount of 5-HT released by the proximal gut ([1]; 60 mM oleate to distal gut, 90 min, control 100 μg) [µg]	amount of proximal gut 5-HT ([1]; oleate in distal gut, 90 min, buffer 82.7±20.53 ng, four dogs) [ng]	Sqrt AUC of cumulative percent marker recovery (mean ± SE) (intestinal transit; Distal 1/2 of gut, 15 mM)	Sqrt AUC of cumulative percent marker recovery (mean ± SE) (intestinal transit; Distal 1/2 of gut, 30 mM)	Sqrt AUC of cumulative percent marker recovery (mean ± SE) (intestinal transit; Distal 1/2 of gut, 60 mM)	Sqrt AUC of cumulative percent marker recovery (mean ± SE) (intestinal transit; Proximal 1/2 of gut, 15 mM, buffer control 41.4 ± 4.6)	Sqrt AUC of cumulative percent marker recovery (mean ± SE) (intestinal transit; Proximal 1/2 of gut, 30 mM)	Sqrt AUC of cumulative percent marker recovery (mean ± SE) (intestinal transit; Proximal 1/2 of gut, 60 mM)	concentration (SIBO)	time to relapse of attention problem and bacterial overgrowth (SIBO)	response to repeat treatment (SIBO; repeat 500 mg twice daily for 10 days)	bowel symptoms (SIBO; 500 mg twice daily for 10 days)
CCCCCCCC/C=C\CCCCCCCC(=O)[O-].[Na+] [oleate, sodium oleate]	509.8	338	211.75 ± 35.44	25.6 ± 1.4	18.9 ± 1.5	7.0 ± 3.8	41.6 ± 1.4	40.6 ± 10.2	34.4 ± 3.0				
neomycin										able to concentrate better	Approximately two	improved concentration and resolution of bowel symptoms	resolution of their bowel symptoms

From patent US9358276B2, “Methods of diagnosing and treating small intestinal bacterial overgrowth (SIBO) and SIBO-related conditions” (Cedars-Sinai Medical Center, priority 1999, dated 2016)
